Legend:
Type in all cases: cell-based, mouse
[1] = tested on: pyruvate carboxylase (PC); assay: Stable isotope tracing in NIH-3T3 cells (surrogate for PC activity)
Procedure: Cells were plated in six-well cell culture plates at a concentration aimed to reach 0.5-1×10^6 cells at the time of harvest. For quantification of relative metabolite abundance, cells were cultured with glutamine-free DMEM containing different concentrations of L-glutamine and supplemented with 10% dialyzed FBS and in some experiments were treated with TGFβ for 48 hours. For the [U-^13C]and [3,4-^13C]glucose tracing experiments, cells were cultured as above, and in the last 8 hours media was replaced with DMEM without D-glucose and L-glutamine supplemented with 2 mM or 0.2 mM L-glutamine and 10 mM [U-^13C]or [3,4-^13C]D-glucose (Cambridge Isotope Laboratories) and 10% dialyzed FBS. For the [U-^13C]and [1-^13C]lactate tracing experiments, cells were cultured in 2 or 0.2 mM L-glutamine, 10 or 1 mM D-glucose in the presence or absence of 10 mM sodium lactate, and in the last 8 hours media was replaced with DMEM without D-glucose and L-glutamine supplemented with 2 mM or 0.2 mM L-glutamine, 10 or 1 mM D-glucose, 10 mM [U-^13C]or [1-^13C]sodium lactate (Cambridge Isotope Laboratories) and 10% dialyzed FBS. For relative quantification of metabolites by gas chromatography-mass spectroscopy (GC-MS), cells were washed briefly with PBS, which was then fully aspirated and metabolism was quenched by immediately adding 1 mL of 80:20 methanol:water stored at −80° C. containing 20 μM deuterated 2-hydroxyglutarate (d5-2HG) as an internal standard. For stable isotope tracing experiments, metabolism was quenched without the PBS washing step by adding 1 mL of 80:20 methanol:water as above. After overnight incubation at −80° C., the resulting extracts were scraped on dry ice, transferred into a 1.5 mL centrifuge tube, and centrifuged at 20,000 g for 20 minutes at 4° C. The supernatants were collected in clean tubes and dried in a vacuum evaporator (Genevac EZ-2 Elite) for 2 hours.
For [U-^13C]glucose tracing into proteinogenic amino acids, cells were cultured in 10% Gln in the presence or absence of TGFβ for 48 hours. In the last 24 hours, the media including all treatments was replaced with DMEM without L-glutamine and D-glucose and supplemented with 0.2 mM L-glutamine and 10 mM [U-^13C]D-glucose (Cambridge Isotope Laboratories) and 10% dialyzed FBS. For [U-^13C]lactate tracing into ECM, confluent cells were cultured in 10% Gln in the presence of 10 mM [U-^13C]sodium lactate for 6 days. The media was replaced every other day. ECM was decellularized as described above. Cells and ECM were washed with PBS, and proteins were precipitated with methanol:chloroform:water (1:1:1). The interphase was washed with methanol, and the dried pellet was subjected to acid hydrolysis with 6 N hydrochloric acid (HCl) and incubation at 95° C. for 16 hours. Samples were cooled to room temperature and centrifuged at 20,000 g for 10 minutes. The cleared supernatant was dried in a vacuum evaporator (Genevac EZ-2 Elite) for 2 hours, and abundance of aspartate, glutamate/glutamine or hydroxyproline isotopologues was measured by GC-MS as described below.
GC-MS measurements were performed as described before^11. Ions used for quantification of metabolite levels were as follows: d5-2HG m/z 354; citrate m/z 465; alpha-ketoglutarate m/z 304; succinate m/z 247; fumarate m/z 245; malate m/z 335; aspartate m/z 232; hydroxyproline m/z 332; proline m/z 216; glutamate m/z 246; glutamine m/z 245; lactate m/z 219; pyruvate m/z 174. All peaks were manually inspected and verified relative to known spectra for each metabolite. Peak identification and integration were done with MassHunter software vB.09 (Agilent Technologies). For relative quantification of cell samples, integrated peak areas were normalized to the internal standard d5-2HG and to the packed cell volume of each sample. Absolute quantification of hydroxyproline in tumor acid hydrolysates was performed against a standard curve of commercial trans-4-hydroxy-L-proline (Sigma). […]

[2] = tested on: mammary fibroblasts (MFBs); assay: Collagen abundance in ECM derived from confluent MFBs; details: Gln 20% or lower, TGFβ (FIG. 8F)
Procedure: Culture plates were coated with 0.1% gelatin (Sigma) and treated with 1% glutaraldehyde (Sigma) and 1 M ethanolamine (Sigma). Confluent NIH-3T3 cells, MFBs or PSCs were grown for 6 days on coated plates in the presence of […] sodium ascorbate (Sigma) and treated as indicated, and the medium was replaced every other day. Plates were decellularized with 20 mM ammonium hydroxide/0.5% Triton-X 100 for 5 min on a rotating platform. Three times the volume of PBS was added, and ECM was equilibrated overnight at 4° C., followed by four additional PBS washes. For western blot, preheated sample buffer supplemented with 1 mM dithiothreitol (DTT) was added, ECM was scraped off and boiled, and proteins were separated by SDS-PAGE followed by immunoblotting. To measure collagen abundance, fibroblast-derived ECM was stained with the Picro Sirius Red Stain Kit (Abcam) according to the manufacturer's instructions. The stain was extracted with 0.1 M sodium hydroxide (NaOH) and optical density was measured at 550 nm using a microplate reader. Differences in cell number were controlled for by growing cells on separate plates under the same experimental conditions.

[3] = tested on: pyruvate carboxylase (PC); assay: [3,4-13C]-Glc tracing in PSCs (PC activity); details: low Gln (20%), TGFβ 48 hours (FIGS. 10J and 10K)
Procedure: Cells were plated in six-well cell culture plates at a concentration aimed to reach 0.5-1×10^6 cells at the time of harvest. For quantification of relative metabolite abundance, cells were cultured with glutamine-free DMEM containing different concentrations of L-glutamine and supplemented with 10% dialyzed FBS and in some experiments were treated with TGFβ for 48 hours. For the [U-^13C]and [3,4-^13C]glucose tracing experiments, cells were cultured as above, and in the last 8 hours media was replaced with DMEM without D-glucose and L-glutamine supplemented with 2 mM or 0.2 mM L-glutamine and 10 mM [U-^13C]or [3,4-^13C]D-glucose (Cambridge Isotope Laboratories) and 10% dialyzed FBS. […] For relative quantification of metabolites by gas chromatography-mass spectroscopy (GC-MS), cells were washed briefly with PBS, which was then fully aspirated and metabolism was quenched by immediately adding 1 mL of 80:20 methanol:water stored at −80° C. containing 20 μM deuterated 2-hydroxyglutarate (d5-2HG) as an internal standard. […]
GC-MS measurements were performed as described before^11. Ions used for quantification of metabolite levels were as follows: d5-2HG m/z 354; citrate m/z 465; alpha-ketoglutarate m/z 304; succinate m/z 247; fumarate m/z 245; malate m/z 335; aspartate m/z 232; hydroxyproline m/z 332; proline m/z 216; glutamate m/z 246; glutamine m/z 245; lactate m/z 219; pyruvate m/z 174. […]

## TGFβ: transforming growth-factor beta; TGFβ-1 purchased from Peprotech
[1]; 10% Gln, TGFβ 48 hours (FIG. 10I)
  m+3 labelling of aspartate and glutamate/glutamine incorporated into cellular protein: reduced
[1]; TGFβ 48 hours (FIG. 3E)
  m+2 labelling of citrate, indicative of PDH activity: increased
[1]; high and low Gln medium, TGFβ 48 hours (FIG. 3E)
  m+3 and/or m+5 labelling of the metabolites analysed from [U-13C]Glc: reduced
[1]; low Gln, TGFβ 48 hours (FIGS. 3G and 3H)
  low-Gln increase of m+1 labelling of aspartate, malate and citrate from [3,4-13C]Glc (PC activity): suppressed
[2]
  collagen accumulation in the ECM: could no longer stimulate
[3]
  PC activity: suppressed

From patent US20260152533A1, “COMBINATION INHIBITORS FOR TREATING FIBROSIS” (Memorial Sloan-Kettering Cancer Center, priority 2021, published 2026)
